# In ChEMBL document CHEMBL3792372, “Modification of the length and structure of the linker of N(6)-benzyladenosine modulates its selective antiviral activity against enterovirus 71” (Eur J Med Chem, 2016):
# pEC50: −log10 of the molar value.
# Test system: Enterovirus A71
# Assay: Antiviral activity against Enterovirus 71 clinical isolate 11316 infected in human RD cells assessed as cell viability after 3 days by MTS assay
# Type: functional, organism-based
# Conditions: Enterovirus A, isolate 11316, RD, 72 h
row,Compound,pEC50
1,OC[C@H]1O[C@@H](n2cnc3c(NC/C=C/c4ccccc4)ncnc32)[C@H](O)[C@@H]1O,5.66
2,OC[C@H]1O[C@@H](n2cnc3c(NCCc4ccccc4)ncnc32)[C@H](O)[C@@H]1O,5.09

# Test system: Enterovirus A71
# Assay: Antiviral activity against Enterovirus 71 clinical isolate TW/70902/08 infected in human RD cells assessed as cell viability after 3 days by MTS assay
# Type: functional, organism-based
# Conditions: Enterovirus A, isolate TW/70902/08, RD, 72 h
row,Compound,pEC50
1,OC[C@H]1O[C@@H](n2cnc3c(NC/C=C/c4ccccc4)ncnc32)[C@H](O)[C@@H]1O,5.60
2,OC[C@H]1O[C@@H](n2cnc3c(NCCc4ccccc4)ncnc32)[C@H](O)[C@@H]1O,5.08

# Test system: Enterovirus A71
# Assay: Antiviral activity against Enterovirus 71 clinical isolate TW/1956/05 infected in human RD cells assessed as cell viability after 3 days by MTS assay
# Type: functional, organism-based
# Conditions: Enterovirus A, isolate TW/1956/05, RD, 72 h
row,Compound,pEC50
1,OC[C@H]1O[C@@H](n2cnc3c(NC/C=C/c4ccccc4)ncnc32)[C@H](O)[C@@H]1O,6.00
2,OC[C@H]1O[C@@H](n2cnc3c(NCCc4ccccc4)ncnc32)[C@H](O)[C@@H]1O,5.57

# Test system: Enterovirus A71
# Assay: Antiviral activity against Enterovirus 71 clinical isolate TW/96016/08 infected in human RD cells assessed as cell viability after 3 days by MTS assay
# Type: functional, organism-based
# Conditions: Enterovirus A, isolate TW/96016/08, RD, 72 h
row,Compound,pEC50
1,OC[C@H]1O[C@@H](n2cnc3c(NC/C=C/c4ccccc4)ncnc32)[C@H](O)[C@@H]1O,5.70
2,OC[C@H]1O[C@@H](n2cnc3c(NCCc4ccccc4)ncnc32)[C@H](O)[C@@H]1O,5.25

# Test system: Enterovirus A71
# Assay: Antiviral activity against Enterovirus 71 clinical isolate H08300 461#812 infected in human RD cells assessed as cell viability after 3 days by MTS assay
# Type: functional, organism-based
# Conditions: Enterovirus A, isolate H08300 461#812, RD, 72 h
row,Compound,pEC50
1,OC[C@H]1O[C@@H](n2cnc3c(NC/C=C/c4ccccc4)ncnc32)[C@H](O)[C@@H]1O,6.42
2,OC[C@H]1O[C@@H](n2cnc3c(NCCc4ccccc4)ncnc32)[C@H](O)[C@@H]1O,5.72

# Test system: not listed separately
# Assay: Cytotoxicity against human RD cells
# Type: cell-based
# Conditions: not given
row,Compound,CC50 [µM]
1,OC[C@H]1O[C@@H](n2cnc3c(NCCOc4ccccc4)ncnc32)C[C@@H]1O,> 337
2,OC[C@H]1O[C@@H](n2cnc3c(NC/C=C/c4ccccc4)ncnc32)[C@H](O)[C@@H]1O,426
3,C[C@H]1O[C@@H](n2cnc3c(NCc4ccccc4)ncnc32)[C@H](O)[C@@H]1O,> 366
4,Cn1cc(CNc2ncnc3c2ncn3[C@@H]2O[C@H](CO)[C@@H](O)[C@H]2O)nn1,136
5,OC[C@H]1O[C@@H](n2cnc3c(OCCc4ccccc4)ncnc32)[C@H](O)[C@@H]1O,8.5
6,OC[C@H]1O[C@@H](n2cnc3c(NCc4ccccc4)ncnc32)C[C@@H]1O,> 366
7,OC[C@H]1O[C@@H](n2cnc3c(NCCOc4ccccc4)ncnc32)[C@H](O)[C@@H]1O,107
8,OCCn1cc(CNc2ncnc3c2ncn3[C@@H]2O[C@H](CO)[C@@H](O)[C@H]2O)nn1,317
9,O=C(Nc1ncnc2c1ncn2[C@@H]1O[C@H](CO)[C@@H](O)[C@H]1O)c1ccccc1,> 337
10,OC[C@H]1O[C@@H](n2cnc3c(NCc4ccccc4)ncnc32)[C@H](O)[C@@H]1O [N6-BENZYLADENOSINE],4
11,OC[C@H]1O[C@@H](n2cnc3c(NCc4cn(COCc5ccccc5)nn4)ncnc32)[C@H](O)[C@@H]1O,116
12,OC[C@H]1O[C@@H](n2cnc3c(NCc4ccco4)ncnc32)[C@H](O)[C@@H]1O [KINETIN RIBOSIDE],7.8
13,OC[C@H]1O[C@@H](n2cnc3c(Nc4ccccc4)ncnc32)[C@H](O)[C@@H]1O [N6-PHENYLADENOSINE],372
14,OC[C@H]1O[C@@H](n2cnc3c(NCCCc4ccccc4)ncnc32)[C@H](O)[C@@H]1O,189
15,O=C(Nc1ncnc2c1ncn2C(CO)OC(CO)CO)c1ccccc1 (stereo unspecified),> 335
16,OC[C@H]1O[C@@H](n2cnc3c(NCCc4ccccc4)ncnc32)C[C@@H]1O,> 352
17,OC[C@H]1O[C@@H](n2cnc3c(NCCCCc4ccccc4)ncnc32)[C@H](O)[C@@H]1O,> 313
18,OC[C@H]1O[C@@H](n2cnc3c(NCCc4ccccc4)ncnc32)[C@H](O)[C@@H]1O,221
19,OC[C@H]1O[C@@H](n2cnc3c(NCOCc4ccccc4)ncnc32)[C@H](O)[C@@H]1O,525
20,OC[C@H]1O[C@@H](n2cnc3c(NCCCOc4ccccc4)ncnc32)[C@H](O)[C@@H]1O,> 311
21,CC(C)=CCNc1ncnc2c1ncn2[C@@H]1O[C@H](CO)[C@@H](O)[C@H]1O [RIBOPRINE],5.8
22,C=CCC#CCNc1ncnc2c1ncn2[C@@H]1O[C@H](CO)[C@@H](O)[C@H]1O,> 434
23,C[C@H]1O[C@@H](n2cnc3c(NCCc4ccccc4)ncnc32)[C@H](O)[C@@H]1O,463
24,c1ccc(CNc2ncnc3nc[nH]c23)cc1 [6-BENZYLAMINOPURINE],547
25,CC(C)=CCNc1ncnc2nc[nH]c12,325
26,OC[C@H]1O[C@@H](n2cnc3c(NCC#Cc4ccccc4)ncnc32)[C@H](O)[C@@H]1O,72
27,OC[C@H]1O[C@@H](n2cnc3c(OCc4ccccc4)ncnc32)[C@H](O)[C@@H]1O,191
28,OC[C@H]1O[C@@H](n2cnc3c(NCCCc4ccccc4)ncnc32)C[C@@H]1O,> 271
29,OC[C@H]1O[C@@H](n2cnc3c(OCCCc4ccccc4)ncnc32)[C@H](O)[C@@H]1O,182
30,OC[C@H]1O[C@@H](n2cnc3c(NCc4cn(Cc5ccccc5)nn4)ncnc32)[C@H](O)[C@@H]1O,> 285

# Test system: Enterovirus A71
# Assay: Antiviral activity against Enterovirus 71 infected in human RD cells assessed as cell viability after 3 days by MTS assay
# Type: functional, organism-based
# Conditions: Enterovirus A, 72 h
row,Compound,pEC50
1,OC[C@H]1O[C@@H](n2cnc3c(NCCOc4ccccc4)ncnc32)C[C@@H]1O,< 3.87
2,OC[C@H]1O[C@@H](n2cnc3c(NC/C=C/c4ccccc4)ncnc32)[C@H](O)[C@@H]1O,6.18
3,C[C@H]1O[C@@H](n2cnc3c(NCc4ccccc4)ncnc32)[C@H](O)[C@@H]1O,5.17
4,Cn1cc(CNc2ncnc3c2ncn3[C@@H]2O[C@H](CO)[C@@H](O)[C@H]2O)nn1,< 3.87
5,OC[C@H]1O[C@@H](n2cnc3c(OCCc4ccccc4)ncnc32)[C@H](O)[C@@H]1O,< 5.07
6,OC[C@H]1O[C@@H](n2cnc3c(NCc4ccccc4)ncnc32)C[C@@H]1O,< 3.84
7,OC[C@H]1O[C@@H](n2cnc3c(NCCOc4ccccc4)ncnc32)[C@H](O)[C@@H]1O,5.37
8,OCCn1cc(CNc2ncnc3c2ncn3[C@@H]2O[C@H](CO)[C@@H](O)[C@H]2O)nn1,< 3.50
9,O=C(Nc1ncnc2c1ncn2[C@@H]1O[C@H](CO)[C@@H](O)[C@H]1O)c1ccccc1,4.92
10,OC[C@H]1O[C@@H](n2cnc3c(NCc4ccccc4)ncnc32)[C@H](O)[C@@H]1O [N6-BENZYLADENOSINE],6.55
11,OC[C@H]1O[C@@H](n2cnc3c(NCc4cn(COCc5ccccc5)nn4)ncnc32)[C@H](O)[C@@H]1O,< 3.94
12,OC[C@H]1O[C@@H](n2cnc3c(NCc4ccco4)ncnc32)[C@H](O)[C@@H]1O [KINETIN RIBOSIDE],5.85
13,OC[C@H]1O[C@@H](n2cnc3c(Nc4ccccc4)ncnc32)[C@H](O)[C@@H]1O [N6-PHENYLADENOSINE],< 3.54
14,OC[C@H]1O[C@@H](n2cnc3c(NCCCc4ccccc4)ncnc32)[C@H](O)[C@@H]1O,5.74
15,O=C(Nc1ncnc2c1ncn2C(CO)OC(CO)CO)c1ccccc1 (stereo unspecified),< 3.47
16,OC[C@H]1O[C@@H](n2cnc3c(NCCc4ccccc4)ncnc32)C[C@@H]1O,< 3.55
17,OC[C@H]1O[C@@H](n2cnc3c(NCCCCc4ccccc4)ncnc32)[C@H](O)[C@@H]1O,< 3.60
18,OC[C@H]1O[C@@H](n2cnc3c(NCCc4ccccc4)ncnc32)[C@H](O)[C@@H]1O,5.74
19,OC[C@H]1O[C@@H](n2cnc3c(NCOCc4ccccc4)ncnc32)[C@H](O)[C@@H]1O,5.52
20,OC[C@H]1O[C@@H](n2cnc3c(NCCCOc4ccccc4)ncnc32)[C@H](O)[C@@H]1O,< 3.51
21,CC(C)=CCNc1ncnc2c1ncn2[C@@H]1O[C@H](CO)[C@@H](O)[C@H]1O [RIBOPRINE],6.00
22,C=CCC#CCNc1ncnc2c1ncn2[C@@H]1O[C@H](CO)[C@@H](O)[C@H]1O,5.31
23,C[C@H]1O[C@@H](n2cnc3c(NCCc4ccccc4)ncnc32)[C@H](O)[C@@H]1O,< 3.55
24,c1ccc(CNc2ncnc3nc[nH]c23)cc1 [6-BENZYLAMINOPURINE],6.38
25,CC(C)=CCNc1ncnc2nc[nH]c12,< 3.49
26,OC[C@H]1O[C@@H](n2cnc3c(NCC#Cc4ccccc4)ncnc32)[C@H](O)[C@@H]1O,6.24
27,OC[C@H]1O[C@@H](n2cnc3c(OCc4ccccc4)ncnc32)[C@H](O)[C@@H]1O,5.29
28,OC[C@H]1O[C@@H](n2cnc3c(NCCCc4ccccc4)ncnc32)C[C@@H]1O,< 3.57
29,OC[C@H]1O[C@@H](n2cnc3c(OCCCc4ccccc4)ncnc32)[C@H](O)[C@@H]1O,< 3.74
30,OC[C@H]1O[C@@H](n2cnc3c(NCc4cn(Cc5ccccc5)nn4)ncnc32)[C@H](O)[C@@H]1O,< 3.64

# Test system: not listed separately
# Assay: Selectivity index, ratio of CC50 for human RD cells to EC50 for Enterovirus 71
# Type: toxicity, cell-based
# Conditions: read-out: Ratio CC50/EC50
row,Compound,selectivity ratio
1,OC[C@H]1O[C@@H](n2cnc3c(NC/C=C/c4ccccc4)ncnc32)[C@H](O)[C@@H]1O,645
2,C[C@H]1O[C@@H](n2cnc3c(NCc4ccccc4)ncnc32)[C@H](O)[C@@H]1O,> 54
3,OC[C@H]1O[C@@H](n2cnc3c(NCCOc4ccccc4)ncnc32)[C@H](O)[C@@H]1O,25
4,O=C(Nc1ncnc2c1ncn2[C@@H]1O[C@H](CO)[C@@H](O)[C@H]1O)c1ccccc1,> 28
5,OC[C@H]1O[C@@H](n2cnc3c(NCc4ccccc4)ncnc32)[C@H](O)[C@@H]1O [N6-BENZYLADENOSINE],14
6,OC[C@H]1O[C@@H](n2cnc3c(NCc4ccco4)ncnc32)[C@H](O)[C@@H]1O [KINETIN RIBOSIDE],5.6
7,OC[C@H]1O[C@@H](n2cnc3c(NCCCc4ccccc4)ncnc32)[C@H](O)[C@@H]1O,105
8,OC[C@H]1O[C@@H](n2cnc3c(NCCc4ccccc4)ncnc32)[C@H](O)[C@@H]1O,123
9,OC[C@H]1O[C@@H](n2cnc3c(NCOCc4ccccc4)ncnc32)[C@H](O)[C@@H]1O,175
10,CC(C)=CCNc1ncnc2c1ncn2[C@@H]1O[C@H](CO)[C@@H](O)[C@H]1O [RIBOPRINE],5.8
11,C=CCC#CCNc1ncnc2c1ncn2[C@@H]1O[C@H](CO)[C@@H](O)[C@H]1O,> 88
12,c1ccc(CNc2ncnc3nc[nH]c23)cc1 [6-BENZYLAMINOPURINE],1300
13,OC[C@H]1O[C@@H](n2cnc3c(NCC#Cc4ccccc4)ncnc32)[C@H](O)[C@@H]1O,124
14,OC[C@H]1O[C@@H](n2cnc3c(OCc4ccccc4)ncnc32)[C@H](O)[C@@H]1O,37

# Test system: Enterovirus A71
# Assay: Antiviral activity against Enterovirus 71 isolate TW/2429/04 infected in human RD cells assessed as cell viability after 3 days by MTS assay
# Type: functional, organism-based
# Conditions: Enterovirus A, isolate TW/2429/04, RD, 72 h
row,Compound,pEC50
1,OC[C@H]1O[C@@H](n2cnc3c(NC/C=C/c4ccccc4)ncnc32)[C@H](O)[C@@H]1O,5.94
2,OC[C@H]1O[C@@H](n2cnc3c(NCCc4ccccc4)ncnc32)[C@H](O)[C@@H]1O,5.43
